Earlier results, collected in paper PMC7904743, “WIDOCK: a reactive docking protocol for virtual screening of covalent inhibitors” (Journal of Computer-Aided Molecular Design, 2021).
Like-named read-outs stand apart in the source and are kept apart here.

What was measured:
OTUB2 = details: experimental actives if % labeling higher than 50%, cited from earlier work
NUDT7 = details: protein labeling at 200 μM; experimental actives if % labeling higher than 50%; cited from earlier work
[1] = thiol reactivity, cited from earlier work
[2] = natural log of average rate constant k
[3] = natural logarithm of average rate constant
[4] = natural log of average kinetic rate constant
[5] = natural log of average rate constant

Row | SMILES | OTUB2 % labeling (OTUB2) | NUDT7 % labeling (NUDT7) | ln(avg k) [1, 2] | ln(avg k) [1, 3] | OTUB2 % labeling (OTUB2; OTUB2 protein labeling) | ln(avg k) [1, 4] | ln(avg k) [1, 5]
1 | O=C1CN(C(=O)CCl)C2(CCCCC2)C(=O)N1 [PCM-0102139, O=C1CN(C(=O)CCl)C2(CCCCC2)C(=O)N1] | 5% | 22% | -15.673 | -15.673 |  |  | 
2 | COc1cc2c(cc1OC)CN(C(=O)CCl)CC2 [PCM-0102317, COc1cc2c(cc1OC)CN(C(=O)CCl)CC2] | 14% | 10% | -14.822 | -14.822 |  |  | 
3 | CC(=O)c1ccc(N2CCN(C(=O)CCl)CC2)c(F)c1 [PCM-0102273, CC(=O)c1ccc(N2CCN(C(=O)CCl)CC2)c(F)c1] | 0% | 20% | -15.374 | -15.374 |  |  | 
4 | Cc1ccc(Cl)cc1NC(=O)CCl [PCM-0102354, Cc1ccc(Cl)cc1NC(=O)CCl] | 0% | 0% | -16.394 | -16.394 |  |  | 
5 | O=C(CCl)NC12CC3CC(CC(C3)C1)C2 [PCM-0102118, O=C(CCl)NC12CC3CC(CC(C3)C1)C2] | 0% | 0% | -16.476 | -16.476 |  |  | 
6 | CN(C)C(=O)CN1CCN(C(=O)CCl)CC1 [PCM-0102304, CN(C)C(=O)CN1CCN(C(=O)CCl)CC1] | 0% | 0% | -16.500 | -16.500 |  |  | 
7 | CS(=O)(=O)c1cccc(NC(=O)CCl)c1 [PCM-0102407, CS(=O)(=O)c1cccc(NC(=O)CCl)c1] | 33% | 0% | -15.426 | -15.426 |  |  | 
8 | CN1CCN(C(=O)CCl)CC1 [PCM-0102921, CN1CCN(C(=O)CCl)CC1] |  | 0% |  |  | 0% | -17.315 | -17.315
9 | Cc1cc(CNC(=O)CCl)ccc1F [PCM-0102305, Cc1cc(CNC(=O)CCl)ccc1F] | 59% | 0% | -16.230 | -16.230 |  |  | 
10 | C#Cc1cccc(NC(=O)CCl)c1 [PCM-0102735, C#Cc1cccc(NC(=O)CCl)c1] |  | 0% |  |  | 9% | -17.384 | -17.384
11 | CC1CN(C(=O)CCl)CCO1 (stereo not drawn) [PCM-0102830, CC1CN(C(=O)CCl)CCO1] |  | 0% |  |  | 0% | -16.218 | -16.218
12 | COc1cc(Cl)c(C)cc1NC(=O)CCl [PCM-0102210, COc1cc(Cl)c(C)cc1NC(=O)CCl] | 25% | 0% | -15.971 | -15.971 |  |  | 
13 | O=C(CCl)N1CCCc2cc(S(=O)(=O)N3CCCC3)ccc21 [PCM-0102625, O=C(CCl)N1CCCc2cc(S(=O)(=O)N3CCCC3)ccc21] | 0% | 0% | -15.992 | -15.992 |  |  | 
14 | O=C(CCl)NC(=O)Nc1ccc2c(c1)OCCCO2 [PCM-0102910, O=C(CCl)NC(=O)Nc1ccc2c(c1)OCCCO2] |  | 0% |  |  | 0% | -16.097 | -16.097
15 | CC1CCC2(CC1)NC(=O)N(NC(=O)CCl)C2=O (stereo not drawn) [PCM-0102666, CC1CCC2(CC1)NC(=O)N(NC(=O)CCl)C2=O] | 0% | 0% | -17.364 | -17.364 |  |  | 
16 | O=C(CCl)Nc1cc2c(cc1Cl)OCCO2 [PCM-0102585, O=C(CCl)Nc1cc2c(cc1Cl)OCCO2] | 0% | 12% | -16.394 | -16.394 |  |  | 
17 | O=C(CCl)NCc1cc(F)cc(F)c1 [PCM-0102790, O=C(CCl)NCc1cc(F)cc(F)c1] |  | 0% |  |  | 0% | -16.548 | -16.548
18 | O=C(CCl)Nc1ccc(F)c(F)c1 [PCM-0102328, O=C(CCl)Nc1ccc(F)c(F)c1] | 31% | 0% | -15.726 | -15.726 |  |  | 
19 | O=C(CCl)Nc1ccc(Br)cc1Cl [PCM-0102505, O=C(CCl)Nc1ccc(Br)cc1Cl] | 7% | 59% | -16.521 | -16.521 |  |  | 
20 | COC(=O)CNC(=O)CCl [PCM-0102906, COC(=O)CNC(=O)CCl] |  | 0% |  |  | 6% | -17.517 | -17.517
21 | Cc1ccc(C2=NN(C(=O)CCl)C(c3ccco3)C2)o1 (stereo not drawn) [PCM-0102102, Cc1ccc(C2=NN(C(=O)CCl)C(c3ccco3)C2)o1] | 0% | 20% | -14.412 | -14.412 |  |  | 

Row | SMILES | OTUB2 % labeling (OTUB2) | NUDT7 % labeling (NUDT7) | ln(avg k) [1, 2] | ln(avg k) [1, 3] | OTUB2 % labeling (OTUB2; OTUB2 protein labeling) | ln(avg k) [1, 4] | ln(avg k) [1, 5]
22 | O=C(CCl)NCc1cccc(F)c1 [PCM-0103047, O=C(CCl)NCc1cccc(F)c1] |  | 0% |  |  | 43% | -16.636 | -16.636
23 | CC(NC(=O)CCl)c1ccc(Br)cc1 (stereo not drawn) [PCM-0102374, CC(NC(=O)CCl)c1ccc(Br)cc1] | 34% | 23% | -16.325 | -16.325 |  |  | 
24 | Cc1ccc(-c2nnc(C)[nH]2)c(NC(=O)CCl)c1 [PCM-0102775, Cc1ccc(-c2nnc(C)[nH]2)c(NC(=O)CCl)c1] |  | 13% |  |  | 0% | -16.632 | -16.632
25 | O=C(CCl)N1CCCC2CCCCC21 (stereo not drawn) [PCM-0102826, O=C(CCl)N1CCCC2CCCCC21] |  | 7% |  |  | 0% | -16.060 | -16.060
26 | CC(NC(=O)CCl)c1ccc2c(c1)CC(=O)N2 (stereo not drawn) [PCM-0102816, CC(NC(=O)CCl)c1ccc2c(c1)CC(=O)N2] |  | 22% |  |  | 29% | -16.367 | -16.367
27 | NC(=O)c1ccccc1NC(=O)CCl [PCM-0102758, NC(=O)c1ccccc1NC(=O)CCl] |  | 0% |  |  | 0% | -15.095 | -15.095
28 | O=C(CCl)N1CCN(c2ccc([N+](=O)[O-])cc2)CC1 [PCM-0102094, O=C(CCl)N1CCN(c2ccc([N+](=O)[O-])cc2)CC1] | 0% | 27% | -15.009 | -15.009 |  |  | 
29 | CCN1CCC(NC(=O)CCl)CC1 [PCM-0102103, CCN1CCC(NC(=O)CCl)CC1] | 0% | 0% | -15.455 | -15.455 |  |  | 
30 | CC(C)(C)C(=O)NNC(=O)CCl [PCM-0102855, CC(C)(C)C(=O)NNC(=O)CCl] |  | 7% |  |  | 0% | -17.593 | -17.593
31 | O=C(CCl)NNC(=O)C1COc2ccccc2O1 (stereo not drawn) [PCM-0102384, O=C(CCl)NNC(=O)C1COc2ccccc2O1] | 27% | 0% | -17.088 | -17.088 |  |  | 
32 | O=C(CCl)Nc1ccc(Br)cc1 [PCM-0102992, O=C(CCl)Nc1ccc(Br)cc1] |  | 11% |  |  | 8% | -15.800 | -15.800
33 | O=C(CCl)N=c1sccn1Cc1ccccc1Cl [PCM-0102550, O=C(CCl)N=c1sccn1Cc1ccccc1Cl] | 0% | 11% | -15.426 | -15.426 |  |  | 
34 | O=C(CCl)NCC(F)(F)F [PCM-0102456, O=C(CCl)NCC(F)(F)F] | 0% | 0% | -18.378 | -18.378 |  |  | 
35 | CC1CC(C)CN(C(=O)CCl)C1 (stereo not drawn) [PCM-0102789, CC1CC(C)CN(C(=O)CCl)C1] |  | 0% |  |  | 8% | -16.705 | -16.705
36 | O=C(CCl)N1CCN(S(=O)(=O)c2cccs2)CC1 [PCM-0102241, O=C(CCl)N1CCN(S(=O)(=O)c2cccs2)CC1] | 0% | 12% | -15.262 | -15.262 |  |  | 
37 | CN(CC(=O)NC(C)(C)C)C(=O)CCl [PCM-0102259, CN(CC(=O)NC(C)(C)C)C(=O)CCl] | 0% | 0% | -16.044 | -16.044 |  |  | 
38 | CN(Cc1ccc2c(c1)OCCO2)C(=O)CCl [PCM-0102958, CN(Cc1ccc2c(c1)OCCO2)C(=O)CCl] |  | 27% |  |  | 9% | -16.177 | -16.177
39 | O=C(CCl)Nc1cccnc1Cl [PCM-0102274, O=C(CCl)Nc1cccnc1Cl] | 0% | 0% | -16.315 | -16.315 |  |  | 
40 | COc1ccccc1N1CCN(C(=O)CCl)CC1 [PCM-0102173, COc1ccccc1N1CCN(C(=O)CCl)CC1] | 0% | 0% | -15.826 | -15.826 |  |  | 
41 | O=C(CCl)Nc1ccnn1C1CCCC1 [PCM-0102336, O=C(CCl)Nc1ccnn1C1CCCC1] | 19% | 0% | -15.629 | -15.629 |  |  | 
42 | O=C(CCl)Nc1nnc(C2CC2)o1 [PCM-0102187, O=C(CCl)Nc1nnc(C2CC2)o1] | 0% | 0% | -17.207 | -17.207 |  |  | 
